Assay results as given in ChEMBL document CHEMBL1159371, “Trisphaerolide A, a novel polyketide from the Dominican sponge Erylus trisphaerus” (J Nat Prod, 2003).
Converted amounts (≈) assume the structure as drawn. The source made the active and inactive calls. No cut-off for these calls is given here.

Experiments:
[1] = system: MCF7; test: Cell cycle arrest in human MCF7 cells by G2 checkpoint inhibition assay; format: functional, cell-based
[2] = system: MCF7; test: Cytotoxicity against human MCF7 cells; format: functional, cell-based

Q: Which results are given for C[C@]1(O)CC(=O)O[C@](C)(CCCCCCCCC/C=C/Cc2ccccc2)C1 [TRISPHAEROLIDE A]?
A: Activity [1]: inactive; IC50 [2]: 30 mg/L (≈ 77.6 µM)
